Assay results published in ChEMBL document CHEMBL4052659, “Synthesis, molecular docking, and biological activity of polyfluoroalkyl dihydroazolo[5,1-c][1,2,4]triazines as selective carboxylesterase inhibitors” (Bioorg Med Chem, 2017).
The source made the active and inactive calls. No cut-off for these calls is given here.

Assays:
Liver carboxylesterase [1] = target: T1, Liver carboxylesterase (Sus scrofa, UniProt Q29550)
T1 sequence (Q29550 whole entry): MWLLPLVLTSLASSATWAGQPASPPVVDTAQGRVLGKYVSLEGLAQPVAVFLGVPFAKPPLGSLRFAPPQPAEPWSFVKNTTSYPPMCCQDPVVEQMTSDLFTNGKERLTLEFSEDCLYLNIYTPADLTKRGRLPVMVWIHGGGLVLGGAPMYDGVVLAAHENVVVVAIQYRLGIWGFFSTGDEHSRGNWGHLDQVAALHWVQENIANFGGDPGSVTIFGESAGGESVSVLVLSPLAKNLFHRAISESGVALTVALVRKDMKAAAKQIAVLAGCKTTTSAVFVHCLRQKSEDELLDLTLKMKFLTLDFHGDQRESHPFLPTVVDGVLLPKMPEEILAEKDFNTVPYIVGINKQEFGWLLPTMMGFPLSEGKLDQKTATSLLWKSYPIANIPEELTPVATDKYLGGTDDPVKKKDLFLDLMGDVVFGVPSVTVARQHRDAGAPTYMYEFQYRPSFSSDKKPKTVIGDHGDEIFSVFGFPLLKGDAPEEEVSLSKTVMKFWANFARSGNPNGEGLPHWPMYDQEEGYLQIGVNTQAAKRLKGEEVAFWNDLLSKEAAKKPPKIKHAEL
Description: Inhibition of porcine liver carboxylesterase using 4-nitrophenol acetate as substrate preincubated for 10 mins followed by substrate addition by spectrophotometric analysis

[2] = target: Acetylcholinesterase (Homo sapiens) (UniProt P22303); assay: Inhibition of human erythrocyte acetylcholinesterase at 20 uM using acetylthiocholine iodide as substrate preincubated for 10 mins followed by substrate addition by Ellman's method relative to control
[3] = target: Cholinesterase (Equus caballus) (UniProt P81908); assay: Inhibition of equine serum butyrylcholinesterase at 20 uM using butyrylthiocholine iodide as substrate preincubated for 10 mins followed by substrate addition by Ellman's method relative to control
[4] = Acute toxicity in CD-1 mouse assessed as mouse survival up to 300 mg/kg, ip measured for 14 days; assay type: organism-based; conditions: in vivo
Liver carboxylesterase [5] = target: T1, Liver carboxylesterase; assay: in vitro; conditions: pig, porcine liver carboxylesterase, probe 4-nitrophenol acetate
Description: Inhibition of porcine liver carboxylesterase at 20 uM using 4-nitrophenol acetate as substrate preincubated for 10 mins followed by substrate addition by spectrophotometric analysis relative to control

Liver carboxylesterase [6] = target: T1, Liver carboxylesterase; assay: Non-competitive inhibition of porcine liver carboxylesterase using varying levels of 4-nitrophenol acetate as substrate preincubated for 10 mins followed by substrate addition by Lineweaver-Burk plot analysis; conditions: pig
Liver carboxylesterase [7] = target: T1, Liver carboxylesterase; assay: Reversible mixed-type inhibition of porcine liver carboxylesterase at 5 to 20 uM using varying levels of 4-nitrophenol acetate as substrate preincubated for 10 mins followed by substrate addition by Lineweaver-Burk double-reciprocal plot analysis; conditions: pig
Liver carboxylesterase [8] = target: T1, Liver carboxylesterase; assay: Competitive inhibition of porcine liver carboxylesterase using varying levels of 4-nitrophenol acetate as substrate preincubated for 10 mins followed by substrate addition by Lineweaver-Burk plot analysis
Liver carboxylesterase [9] = target: T1, Liver carboxylesterase; assay: Reversible mixed-type inhibition of porcine liver carboxylesterase at 0.1 to 0.6 uM using varying levels of 4-nitrophenol acetate as substrate preincubated for 10 mins followed by substrate addition by Lineweaver-Burk double-reciprocal plot analysis; conditions: pig
Liver carboxylesterase [10] = target: T1, Liver carboxylesterase; assay: Reversible mixed-type inhibition of porcine liver carboxylesterase at 0.5 to 2 uM using varying levels of 4-nitrophenol acetate as substrate preincubated for 10 mins followed by substrate addition by Lineweaver-Burk double-reciprocal plot analysis; conditions: pig

Sequence of Cholinesterase (Equus caballus) (P81908 whole entry): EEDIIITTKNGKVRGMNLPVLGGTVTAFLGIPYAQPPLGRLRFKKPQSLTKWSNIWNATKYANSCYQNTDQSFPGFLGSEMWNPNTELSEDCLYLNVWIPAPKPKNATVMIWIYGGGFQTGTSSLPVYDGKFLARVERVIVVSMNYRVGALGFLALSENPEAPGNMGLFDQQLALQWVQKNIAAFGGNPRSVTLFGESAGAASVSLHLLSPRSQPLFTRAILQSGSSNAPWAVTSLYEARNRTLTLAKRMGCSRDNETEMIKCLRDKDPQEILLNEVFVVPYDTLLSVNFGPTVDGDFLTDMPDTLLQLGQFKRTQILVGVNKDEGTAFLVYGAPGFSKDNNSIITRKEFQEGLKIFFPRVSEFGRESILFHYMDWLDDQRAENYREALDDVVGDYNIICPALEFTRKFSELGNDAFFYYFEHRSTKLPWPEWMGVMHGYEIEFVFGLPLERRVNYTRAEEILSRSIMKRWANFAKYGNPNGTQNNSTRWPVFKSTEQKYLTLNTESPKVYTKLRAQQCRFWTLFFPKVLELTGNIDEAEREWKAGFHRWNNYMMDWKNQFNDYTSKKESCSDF
Sequence of Acetylcholinesterase (Homo sapiens) (P22303 whole entry): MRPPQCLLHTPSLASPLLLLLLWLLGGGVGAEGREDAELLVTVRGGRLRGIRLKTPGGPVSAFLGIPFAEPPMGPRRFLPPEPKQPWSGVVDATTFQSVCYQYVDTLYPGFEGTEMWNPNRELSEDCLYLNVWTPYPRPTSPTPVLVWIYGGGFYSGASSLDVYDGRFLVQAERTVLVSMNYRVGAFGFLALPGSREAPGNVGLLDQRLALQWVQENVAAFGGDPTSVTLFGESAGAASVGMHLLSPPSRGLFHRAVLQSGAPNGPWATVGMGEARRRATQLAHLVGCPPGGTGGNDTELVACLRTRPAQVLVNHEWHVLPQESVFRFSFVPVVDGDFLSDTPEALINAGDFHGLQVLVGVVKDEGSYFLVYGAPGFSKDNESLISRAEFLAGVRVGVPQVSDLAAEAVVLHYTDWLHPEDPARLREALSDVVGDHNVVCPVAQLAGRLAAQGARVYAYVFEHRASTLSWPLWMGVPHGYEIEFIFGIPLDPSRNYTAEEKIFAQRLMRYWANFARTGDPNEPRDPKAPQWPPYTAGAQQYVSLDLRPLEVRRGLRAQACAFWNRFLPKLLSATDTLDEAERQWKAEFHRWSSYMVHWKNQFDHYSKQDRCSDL

| Structure (SMILES) | IC50 (Liver carboxylesterase [1]) | inhibition [2] | inhibition [3] | survival at 336 h [4] | inhibition at 20 µM (Liver carboxylesterase [5]) | alphaKi (Liver carboxylesterase [6]) | inhibition (INH) (Liver carboxylesterase [7]) | Ki (Liver carboxylesterase [8]) | inhibition (INH) (Liver carboxylesterase [9]) | inhibition (INH) (Liver carboxylesterase [10]) |
| --- | --- | --- | --- | --- | --- | --- | --- | --- | --- | --- |
| CCOC(=O)C1=NNc2cc(-c3ccccc3)nn2C1(O)C(F)(F)F (stereo not drawn) | 16.4 µM | 3.8% | inactive |  |  |  |  |  |  |  |
| CCOC(=O)c1cnn2c1NN=C(C(=O)OC)C2(O)C(F)(F)C(F)(F)C(F)(F)F (stereo not drawn) | 38.2 µM | inactive | inactive |  |  |  |  |  |  |  |
| COC(=O)C1=NNc2nnnn2C1(O)C(F)(F)C(F)F (stereo not drawn) | 12.3 µM | inactive | inactive |  |  |  |  |  |  |  |
| CCOC(=O)C1=NNc2cc(C)nn2C1(O)C(F)(F)C(F)(F)C(F)(F)C(F)(F)F (stereo not drawn) | 1.44 µM | 3% | 6% | 100% |  |  |  |  |  |  |
| CCOC(=O)C1=NNc2c(C(=O)OCC)cnn2C1(O)C(F)(F)F (stereo not drawn) |  | inactive | 8.5% |  | 9.3% |  |  |  |  |  |
| CCOC(=O)C1=NNc2c(C(=O)OCC)ncn2C1(O)C(F)(F)F (stereo not drawn) | 34.4 µM | inactive | inactive |  |  |  |  |  |  |  |
| CCOC(=O)C1=NNc2cc(C)nn2C1(O)C(F)(F)F (stereo not drawn) | 48.3 µM | inactive | 7.3% |  |  |  |  |  |  |  |
| COC(=O)C1=NNc2ncnn2C1(O)C(F)(F)C(F)(F)C(F)(F)C(F)(F)F (stereo not drawn) | 10.7 µM | inactive | inactive |  |  | 23.4 µM | Active | 6.51 µM |  |  |
| CCOC(=O)C1=NNc2nnnn2C1(O)C(F)(F)F (stereo not drawn) | 13.6 µM | inactive | inactive |  |  |  |  |  |  |  |
| O=[N+]([O-])c1ccc(OP(=O)(O)Oc2ccc([N+](=O)[O-])cc2)cc1 | 1.8 µM | inactive | inactive |  |  |  |  |  |  |  |
| O=C(C1=NNc2ncnn2C1(O)C(F)(F)C(F)(F)C(F)(F)F)c1ccccc1 (stereo not drawn) | 53.4 µM | inactive | inactive |  |  |  |  |  |  |  |
| CCOC(=O)c1nnc(N)nc1C(F)(F)F | 3.9 µM | inactive | inactive |  |  |  |  |  |  |  |
| CCOC(=O)C1=NNc2cc(-c3ccccc3)nn2C1(O)C(F)(F)C(F)(F)F (stereo not drawn) | 3.91 µM | 13.6% | 22% | 100% |  | 3.52 µM |  | 1.61 µM |  |  |
| CCOC(=O)C1=NNc2ncnn2C1(O)C(F)(F)C(F)(F)C(F)(F)C(F)(F)F (stereo not drawn) | 0.98 µM | inactive | 3.7% |  |  |  |  |  |  |  |
| CCOC(=O)C1=NNc2ncnn2C1(O)C(F)(F)F (stereo not drawn) | 3.6 µM | inactive | inactive |  |  |  |  |  |  |  |
| O=C(C1=NNc2nnnn2C1(O)C(F)(F)F)c1ccccc1 (stereo not drawn) | 17.2 µM | inactive | inactive |  |  |  |  |  |  |  |
| CCOC(=O)C1=NNc2cc(-c3ccccc3)nn2C1(O)C(F)(F)C(F)(F)C(F)(F)C(F)(F)F (stereo not drawn) | 0.46 µM | inactive | 16.2% | 100% |  | 0.69 µM |  | 0.23 µM | Active |  |
| CCOC(=O)C1=NNc2nnnn2C1(O)C(F)(F)C(F)(F)C(F)(F)C(F)(F)F (stereo not drawn) | 0.83 µM | inactive | inactive |  |  |  |  |  |  |  |
| COC(=O)C1=NNc2cc(-c3ccccc3)nn2C1(O)C(F)(F)C(F)(F)C(F)(F)C(F)(F)F (stereo not drawn) | 0.96 µM | 11.7% | 11.6% |  |  | 1.6 µM |  | 0.7 µM |  |  |
| COC(=O)C1=NNc2nnnn2C1(O)C(F)(F)C(F)(F)C(F)(F)F (stereo not drawn) | 3.29 µM | inactive | inactive |  |  |  |  |  |  |  |
| COC(=O)C1=NNc2nnnn2C1(O)C(F)(F)F (stereo not drawn) | 58.6 µM | inactive | 4.1% |  |  |  |  |  |  |  |
| COC(=O)C1=NNc2nnnn2C1(O)C(F)(F)C(F)(F)C(F)(F)C(F)(F)F (stereo not drawn) | 1.31 µM | inactive | inactive | 100% |  | 1.74 µM |  | 0.57 µM |  | Active |
